Legend:
Syndrome X patients = test: Randomized double-blind crossover trial in Syndrome X patients (Example 5c); format: in vivo, human; conditions: 600 mg twice daily, four weeks
Excerpt: Eleven patients were enrolled in the trial. The average age was 50.2±12.8 years, and there were 10 males and 1 patient enrolled. Body weight and body mass index were 87.8±17.9 kg and 27.7±3.0 kg/m^2, respectively. All patients carried a diagnosis of dyslipidemia, including elevated triglycerides, for an average of 11.7±6.4 years.
In this randomized, double-blind, crossover study, the 11 patients underwent eligibility screening (physical exam, medical history, laboratory evaluation, PSA, TSH), followed by a six-week lead-in phase (study weeks 1-6) that included diet (AHA Step II), and discontinuation of lipid-lowering therapy. At week 4, qualifying lipid testing was performed, followed by randomization to study treatment two weeks later. Four-weeks of each of the two study treatments, fluasterone 600 mg twice daily or placebo, were then administered (weeks 7 thru 10 and 15 thru 18), separated by a 4-week washout period. At baseline, and at the end of each treatment period measurement of total serum cholesterol, triglycerides, apolipoprotein A1, and the cholesterol and triglyceride content of VLDL, LDL, and HDL was done.
The baseline triglyceride level (mg/dL) was 509±184 and the baseline HDL level (mg/dL) was 33.0±3.5.

[1] = test system: male BKS.Cg-m+/+Leprdb mice; test: Mortality during treatment of diabetic mice (Example 9); format: in vivo
Female CD-1 mice = test: Dexamethasone-induced thymic and splenic atrophy, anti-glucocorticoid effect (Example 4); format: in vivo; conditions: for Spleen Wt. / Thymus Wt.: no DEX
Procedure: Female CD-1 mice were obtained from Charles River Laboratories, Kingston, N.Y. at 43-45 days of age. The mice were housed five per cage in plastic shoebox cages on corn cob bedding in the Fels Animal Facility at 72°±2° F. with 50%±5% humidity and twelve hours of alternate light and darkness. The mice had ad libitum access to Purina chain 5015 and acidified water for pretreatment.
Six days later, the mice were weighed, earmarked and redistributed into six groups for treatment: 1) a control group, 2) a group treated with dexamethasone (“DEX”), a glucocorticoid which induces thymic and splenic atrophy, 3) a group treated with 200 mg/kg 16α-fluoro-5-androsten-17-one (hereinafter “drug”), 4) a group treated with 400 mg/kg of, 5) a group treated with dexamethasone and 200 mg/kg drug and 6) a group treated with dexamethasone and 400 mg/kg drug. The treatment in the groups were as follows and were conducted simuitaneously.
The control group was intubated with 0.2 mL of sesame oil for three days. On the third day after commencement of the intubation, the mice were injected subcutaneously with 0.05 mL of absolute ethanol one hour after the last treatment with sesame oil.
The second group was intubated with 0.2 mL of sesame oil for three days. On the third day after the commencement of the intubation, the mice were injected subcutaneously with 1.6 mg of dexamethasone dissolved in 0.05 mL of absolute ethanol approximately one hour after the last treatment with sesame oil.
The third and fourth groups were intubated with 200 mg/Kg and 400 mg/Kg drug, respectively, suspended in 0.2 mL of sesame oil for three days. After commencement of the intubation, the mice were injected subcutaneously with 0.05 mL of absolute ethanol approximately one hour after the last treatment with sesame oil.
The fifth and sixth groups were intubated with 200 mg/kg and 400 mg/kg, respectively, of drug, suspended in 0.2 mL of sesame oil for three days. On the third day after commencement of the intubation, the mice were injected subcutaneously with 1.6 mg of dexamethasome dissolved in 0.05 mL of absolute ethanol approximately one hour after the last treatment with sesame oil.
All of the mice were sacrificed by an overdose of CO2 approximately 24 hours after the injection of ethanol (first, third and fourth groups) or approximately 24 hours after injection with dexamethasone (second, fifth and sixth groups). The mice were weighed and the thymus was excised, cleaned of adventia, rinsed in phosphate-buffered saline (P.B.S.), blotted and weighed. The spleen was also excised, cleaned, rinsed, blotted and weighed.

[2] = 200 mg/kg drug intubated for three days
[3] = 400 mg/kg drug intubated for three days

C[C@]12CCCCC1=CC[C@@H]1[C@@H]2CC[C@]2(C)C(=O)[C@H](F)C[C@@H]12 [fluasterone, 16α-fluoro-5-androsten-17-one]
Change in HDL levels, least square means±S.E.M. (Syndrome X patients; baseline 33.0±3.5 mg/dL, p=0.068 vs placebo): −5.8±4.1
Change in triglyceride levels, least square means±S.E.M. (Syndrome X patients; baseline 509±184 mg/dL, p<0.005 vs placebo): −165±76
Mortality (mice died) ([1]; 5 mg/kg, i.p. group, about two weeks later): 1 mouse
Mortality (mice died) ([1]; 200 mg/kg oral group, about 17 days later): 1 mouse
Spleen Wt. (Female CD-1 mice; [2]): 103.5 ± 9.2 mg
Thymus Wt. (Female CD-1 mice; [2]): 65.0 ± 5.8 mg
Effect on dexamethasone-induced thymic and splenic atrophy (Female CD-1 mice; 400 mg/kg): significantly reduced dexamethasone-induced thymic and splenic atrophy
Spleen Wt. (Female CD-1 mice; [3]): 129.4 ± 17.9 mg
Thymus Wt. (Female CD-1 mice; [3]): 74.3 ± 7.1 mg

Source: patent US20040019026A1, “Compounds useful for treating hypertriglyceridemia” (priority 2000, published 2004)
